From US20230085307A1, “PYRIDAZINONE COMPOUND AND HERBICIDE” (NISSAN CHEMICAL CORPORATION, priority 2019, published 2023)

Key:
[1] = tested on: redroot pigweed; assay: Test Example 4: herbicidal effect by soil treatment (Table 19, symbol N); format: in vivo, redroot pigweed (Amaranthus retroflexus); details: amount of applied herbicide 320 g/ha
Summary of the method: (§1)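 Pre-emergence style soil spray: seeds under ~1.5 cm sterilized diluvial soil received a uniform coat of emulsion diluted to the predetermined herbicide amount. Greenhouse 25–30° C; readout at week three on previously defined criteria.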

[2] = tested on: persian speedwell; assay: Test Example 5: herbicidal effect by foliage application, plastic box (Table 20, symbol R); format: in vivo, Persian speedwell (Veronica persica); details: 320 g/ha
Summary of the method: (§2)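 Plants were sown into sterilized diluvial soil under about 1.5 cm cover and kept in a greenhouse at 25° C. to 30° C. Fourteen days on, foliage received an even spray of the diluted emulsion. Herbicidal or crop effect was judged three weeks afterwards.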

[3] = tested on: barnyard grass; assay: Test Example 5: herbicidal effect by foliage application, plastic box (Table 20, symbol H); format: in vivo, barnyard grass (Echinochloa crus-galli); details: 320 g/ha
Summary of the method: as §2

[4] = tested on: false cleavers; assay: Test Example 4: herbicidal effect by soil treatment (Table 19, symbol Q); format: in vivo, false cleavers (Galium spurium); details: amount of applied herbicide 320 g/ha
Summary of the method: as §1

[5] = tested on: windgrass; assay: Test Example 5: herbicidal effect by foliage application, plastic box (Table 20, symbol L); format: in vivo, windgrass (Apera spica-venti); details: 320 g/ha
Summary of the method: as §2

[6] = tested on: lambsquarters; assay: Test Example 4: herbicidal effect by soil treatment (Table 19, symbol O); format: in vivo, lambsquarters (Chenopodium album); details: amount of applied herbicide 320 g/ha
Summary of the method: as §1

[7] = tested on: persian speedwell; assay: Test Example 4: herbicidal effect by soil treatment (Table 19, symbol R); format: in vivo, Persian speedwell (Veronica persica); details: amount of applied herbicide 320 g/ha
Summary of the method: as §1

[8] = tested on: rice flat sedge; assay: Test Example 3: herbicidal effect by foliage application, Wagner pot (Table 18, symbol E); format: in vivo, rice flat sedge (Cyperus iria); details: amount of applied herbicide 320 g/ha
Summary of the method: (§3)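 Plants were sown in alluvial soil held under 0.1–0.5 cm standing water and grown 14 days in a greenhouse at 25–30 °C. An emulsifiable formulation, water-diluted to the set dose, was then sprayed onto the foliage, and effects were scored three weeks later using previously defined criteria.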

[9] = tested on: green foxtail; assay: Test Example 4: herbicidal effect by soil treatment (Table 19, symbol G); format: in vivo, green foxtail (Setaria viridis); details: amount of applied herbicide 320 g/ha
Summary of the method: as §1

[10] = tested on: barnyard grass; assay: Test Example 4: herbicidal effect by soil treatment (Table 19, symbol H); format: in vivo, barnyard grass (Echinochloa crus-galli); details: amount of applied herbicide 320 g/ha
Summary of the method: as §1

[11] = tested on: Italian ryegrass; assay: Test Example 4: herbicidal effect by soil treatment (Table 19, symbol K); format: in vivo, Italian ryegrass (Lolium multiflorum); details: amount of applied herbicide 320 g/ha
Summary of the method: as §1

[12] = tested on: windgrass; assay: Test Example 4: herbicidal effect by soil treatment (Table 19, symbol L); format: in vivo, windgrass (Apera spica-venti); details: amount of applied herbicide 320 g/ha
Summary of the method: as §1

[13] = tested on: barnyard grass; assay: Test Example 3: herbicidal effect by foliage application, Wagner pot (Table 18, symbol H); format: in vivo, barnyard grass (Echinochloa crus-galli); details: amount of applied herbicide 320 g/ha
Summary of the method: as §3

[14] = tested on: redroot pigweed; assay: Test Example 5: herbicidal effect by foliage application, plastic box (Table 20, symbol N); format: in vivo, redroot pigweed (Amaranthus retroflexus); details: 320 g/ha
Summary of the method: as §2

[15] = tested on: blackgrass; assay: Test Example 4: herbicidal effect by soil treatment (Table 19, symbol J); format: in vivo, blackgrass (Alopecurus myosuroides); details: amount of applied herbicide 320 g/ha
Summary of the method: as §1

[16] = tested on: chickweed; assay: Test Example 5: herbicidal effect by foliage application, plastic box (Table 20, symbol P); format: in vivo, common chickweed (Stellaria media); details: 320 g/ha
Summary of the method: as §2

[17] = tested on: lambsquarters; assay: Test Example 5: herbicidal effect by foliage application, plastic box (Table 20, symbol O); format: in vivo, lambsquarters (Chenopodium album); details: 320 g/ha
Summary of the method: as §2

[18] = tested on: velvetleaf; assay: Test Example 5: herbicidal effect by foliage application, plastic box (Table 20, symbol M); format: in vivo, velvetleaf (Abutilon theophrasti); details: 320 g/ha
Summary of the method: as §2

[19] = tested on: velvetleaf; assay: Test Example 4: herbicidal effect by soil treatment (Table 19, symbol M); format: in vivo, velvetleaf (Abutilon theophrasti); details: amount of applied herbicide 320 g/ha
Summary of the method: as §1

[20] = tested on: Chinese sprangletop; assay: Test Example 3: herbicidal effect by foliage application, Wagner pot (Table 18, symbol D); format: in vivo, chinese sprangletop (Leptochloa chinensis); details: amount of applied herbicide 320 g/ha
Summary of the method: as §3

[21] = tested on: Japanese bulrush; assay: Test Example 1: herbicidal activity, application before weed generation under submerged conditions (Table 16, symbol B); format: in vivo, Japanese bulrush (Schoenoplectus juncoides); details: amount of applied herbicide 320 g/ha
Summary of the method: (§4)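 Alluvial soil was flooded to 4 cm depth, weed seeds were sown mixed and 2.5-leaf rice seedlings were transplanted. On sowing day, the compound's emulsion, diluted in water to a set dose, was applied to the water surface. Plants grew at 25–30 °C and were scored 0–5 after three weeks.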

[22] = tested on: Italian ryegrass; assay: Test Example 5: herbicidal effect by foliage application, plastic box (Table 20, symbol K); format: in vivo, Italian ryegrass (Lolium multiflorum); details: 320 g/ha
Summary of the method: as §2

[23] = tested on: southern crabgrass; assay: Test Example 4: herbicidal effect by soil treatment (Table 19, symbol F); format: in vivo, southern crabgrass (Digitaria ciliaris); details: amount of applied herbicide 320 g/ha
Summary of the method: as §1

[24] = tested on: late watergrass; assay: Test Example 1: herbicidal activity, application before weed generation under submerged conditions (Table 16, symbol A); format: in vivo, late watergrass (Echinochloa oryzicola); details: amount of applied herbicide 320 g/ha
Summary of the method: as §4

[25] = tested on: oval-leafed pondweed; assay: Test Example 1: herbicidal activity, application before weed generation under submerged conditions (Table 16, symbol C); format: in vivo, oval-leafed pondweed (Monochoria vaginalis); details: amount of applied herbicide 320 g/ha
Summary of the method: as §4

[26] = tested on: blackgrass; assay: Test Example 5: herbicidal effect by foliage application, plastic box (Table 20, symbol J); format: in vivo, blackgrass (Alopecurus myosuroides); details: 320 g/ha
Summary of the method: as §2

[27] = tested on: wild oat; assay: Test Example 4: herbicidal effect by soil treatment (Table 19, symbol I); format: in vivo, wild oat (Avena fatua); details: amount of applied herbicide 320 g/ha
Summary of the method: as §1

[28] = tested on: green foxtail; assay: Test Example 5: herbicidal effect by foliage application, plastic box (Table 20, symbol G); format: in vivo, green foxtail (Setaria viridis); details: 320 g/ha
Summary of the method: as §2

[29] = tested on: southern crabgrass; assay: Test Example 5: herbicidal effect by foliage application, plastic box (Table 20, symbol F); format: in vivo, southern crabgrass (Digitaria ciliaris); details: 320 g/ha
Summary of the method: as §2

[30] = tested on: wild oat; assay: Test Example 5: herbicidal effect by foliage application, plastic box (Table 20, symbol I); format: in vivo, wild oat (Avena fatua); details: 320 g/ha
Summary of the method: as §2

[31] = tested on: chickweed; assay: Test Example 4: herbicidal effect by soil treatment (Table 19, symbol P); format: in vivo, common chickweed (Stellaria media); details: amount of applied herbicide 320 g/ha
Summary of the method: as §1

[32] = foliage application, three weeks after application
[33] = foliage application after 14-day growth, evaluated three weeks after application

COc1ccccc1-c1sc2ccc(F)cc2c1-c1c(O)c(C)nn(CC#N)c1=O [2-431]
herbicidal effect, N: redroot pigweed [1]: 5 (Herbicidal rate of 90% or more (almost completely withered))
R: persian speedwell, herbicidal effect grade [2, 32]: 3 (Herbicidal rate of 40% or more and less than 70%)
H: barnyard grass, herbicidal effect grade [3, 32]: 0 (Herbicidal rate of 5% or less (almost no effect))
herbicidal effect, Q: false cleavers [4]: 0 (Herbicidal rate of 5% or less (almost no effect))
L: windgrass, herbicidal effect grade [5, 32]: 0 (Herbicidal rate of 5% or less (almost no effect))
herbicidal effect, O: lambsquarters [6]: 1 (Herbicidal rate of 5% or more and less than 20%)
herbicidal effect, R: persian speedwell [7]: 0 (Herbicidal rate of 5% or less (almost no effect))
herbicidal effect on E: rice flat sedge [8]: 5 (Herbicidal rate of 90% or more (almost completely withered))
herbicidal effect, G: green foxtail [9]: 0 (Herbicidal rate of 5% or less (almost no effect))
herbicidal effect, H: barnyard grass [10]: 0 (Herbicidal rate of 5% or less (almost no effect))
herbicidal effect, K: Italian ryegrass [11]: 0 (Herbicidal rate of 5% or less (almost no effect))
herbicidal effect, L: windgrass [12]: 0 (Herbicidal rate of 5% or less (almost no effect))
herbicidal effect on H: barnyard grass [13]: 5 (Herbicidal rate of 90% or more (almost completely withered))
N: redroot pigweed, herbicidal effect grade [14, 32]: 3 (Herbicidal rate of 40% or more and less than 70%)
herbicidal effect, J: blackgrass [15]: 0 (Herbicidal rate of 5% or less (almost no effect))
P: chickweed, herbicidal effect grade [16, 32]: 5 (Herbicidal rate of 90% or more (almost completely withered))
O: lambsquarters, herbicidal effect grade [17, 32]: 1 (Herbicidal rate of 5% or more and less than 20%)
M: velvetleaf, herbicidal effect grade [18, 32]: 2 (Herbicidal rate of 20% or more and less than 40%)
herbicidal effect, M: velvetleaf [19]: 1 (Herbicidal rate of 5% or more and less than 20%)
herbicidal effect on D: Chinese sprangletop [20]: 3 (Herbicidal rate of 40% or more and less than 70%)
Herbicidal effect, B: Japanese bulrush [21]: 0 (Herbicidal rate of 5% or less (almost no effect))
K: Italian ryegrass, herbicidal effect grade [22, 32]: 0 (Herbicidal rate of 5% or less (almost no effect))
herbicidal effect, F: southern crabgrass [23]: 0 (Herbicidal rate of 5% or less (almost no effect))
Herbicidal effect, A: late watergrass [24]: 2 (Herbicidal rate of 20% or more and less than 40%)
Herbicidal effect, C: oval-leafed pondweed [25]: 0 (Herbicidal rate of 5% or less (almost no effect))
J: blackgrass, herbicidal effect grade [26, 32]: 0 (Herbicidal rate of 5% or less (almost no effect))
herbicidal effect, I: wild oat [27]: 0 (Herbicidal rate of 5% or less (almost no effect))
G: green foxtail, herbicidal effect grade [28, 32]: 0 (Herbicidal rate of 5% or less (almost no effect))
F: southern crabgrass, herbicidal effect grade [29, 32]: 0 (Herbicidal rate of 5% or less (almost no effect))
I: wild oat, herbicidal effect grade [30, 32]: 0 (Herbicidal rate of 5% or less (almost no effect))

Cc1nn(C)c(=O)c(-c2c(-c3ccc(C(C)C)cc3)sc3c(F)cccc23)c1O [4-042]
Herbicidal effect by soil treatment, N: redroot pigweed [1]: 4 (Herbicidal rate of 70% or more and less than 90%)
Herbicidal effect by soil treatment, P: chickweed [31]: 5 (Herbicidal rate of 90% or more (almost completely withered))
herbicidal effect on R: persian speedwell (evaluation grade 0-5) [2, 33]: 5 (Herbicidal rate of 90% or more (almost completely withered))
herbicidal effect on H: barnyard grass (evaluation grade 0-5) [3, 33]: 5 (Herbicidal rate of 90% or more (almost completely withered))
Herbicidal effect by soil treatment, Q: false cleavers [4]: 0 (Herbicidal rate of 5% or less (almost no effect))
herbicidal effect on L: windgrass (evaluation grade 0-5) [5, 33]: 0 (Herbicidal rate of 5% or less (almost no effect))
Herbicidal effect by soil treatment, O: lambsquarters [6]: 3 (Herbicidal rate of 40% or more and less than 70%)
Herbicidal effect by soil treatment, R: persian speedwell [7]: 3 (Herbicidal rate of 40% or more and less than 70%)
Herbicidal effect by soil treatment, G: green foxtail [9]: 0 (Herbicidal rate of 5% or less (almost no effect))
Herbicidal effect by soil treatment, H: barnyard grass [10]: 1 (Herbicidal rate of 5% or more and less than 20%)
Herbicidal effect by soil treatment, K: Italian ryegrass [11]: 0 (Herbicidal rate of 5% or less (almost no effect))
Herbicidal effect by soil treatment, L: windgrass [12]: 0 (Herbicidal rate of 5% or less (almost no effect))
herbicidal effect on N: redroot pigweed (evaluation grade 0-5) [14, 33]: 5 (Herbicidal rate of 90% or more (almost completely withered))
Herbicidal effect by soil treatment, J: blackgrass [15]: 0 (Herbicidal rate of 5% or less (almost no effect))
herbicidal effect on P: chickweed (evaluation grade 0-5) [16, 33]: 5 (Herbicidal rate of 90% or more (almost completely withered))
herbicidal effect on O: lambsquarters (evaluation grade 0-5) [17, 33]: 4 (Herbicidal rate of 70% or more and less than 90%)
herbicidal effect on M: velvetleaf (evaluation grade 0-5) [18, 33]: 5 (Herbicidal rate of 90% or more (almost completely withered))
Herbicidal effect by soil treatment, M: velvetleaf [19]: 1 (Herbicidal rate of 5% or more and less than 20%)
Herbicidal effect, B: Japanese bulrush [21]: 3 (Herbicidal rate of 40% or more and less than 70%)
herbicidal effect on K: Italian ryegrass (evaluation grade 0-5) [22, 33]: 3 (Herbicidal rate of 40% or more and less than 70%)
Herbicidal effect by soil treatment, F: southern crabgrass [23]: 0 (Herbicidal rate of 5% or less (almost no effect))
Herbicidal effect, A: late watergrass [24]: 3 (Herbicidal rate of 40% or more and less than 70%)
Herbicidal effect, C: oval-leafed pondweed [25]: 0 (Herbicidal rate of 5% or less (almost no effect))
herbicidal effect on J: blackgrass (evaluation grade 0-5) [26, 33]: 0 (Herbicidal rate of 5% or less (almost no effect))
Herbicidal effect by soil treatment, I: wild oat [27]: 0 (Herbicidal rate of 5% or less (almost no effect))
herbicidal effect on G: green foxtail (evaluation grade 0-5) [28, 33]: 4 (Herbicidal rate of 70% or more and less than 90%)
herbicidal effect on F: southern crabgrass (evaluation grade 0-5) [29, 33]: 1 (Herbicidal rate of 5% or more and less than 20%)
herbicidal effect on I: wild oat (evaluation grade 0-5) [30, 33]: 0 (Herbicidal rate of 5% or less (almost no effect))
